Results: patent US12577267B2, “Pyrimidine compounds for use as MAP4K1 inhibitors” (GLENMARK SPECIALITY S.A., priority 2021, dated 2026)
Where a name gives a salt, the structure may show the parent alone. Read-outs that look alike come from different tables or passages of the source.

Biological target: MAP4K-1 enzyme (Homo sapiens, UniProt Q92918)
Assay: FRET one step binding assay (tracer displacement)
Details: for inhibition at 1 µM / % Inhibition at 1 μM: 1 μM compound; for inhibition at 10 µM / % Inhibition at 10 μM: 10 μM compound
Method: This is a one step binding assay based on the binding and displacement of the labeled tracer, where compound addition is followed by addition of the anti-GST tagged europium (Eu) as the donor and Alexa Fluor-labeled tracer as the acceptor.
Test compounds were dissolved in dimethylsulfoxide (DMSO) to prepare 10.0 mM stock solutions and diluted to the desired concentration. The final concentration of DMSO in the reaction was 3% (v/v). The assay mixture was prepared by mixing 2 nM of the Eu-Anti-GST Antibody and 5 nM MAP4K-1 enzyme in the Kinase buffer containing 50 mM HEPES (pH 7.5), 10 mM MgCl2, 1 mM EGTA, 0.01% Brij-35 with or without the desired concentration of the compound. The reaction was incubated on ice for 15 min. […] After shaking for 5 min the reaction was further incubated for 1 hour at room temperature and this was kept at 4° C. and read on ARTEMIS reader as per the kit instructions (Thermo). […] The activity was calculated as percent of control reaction. IC50 values were calculated from dose response curve by nonlinear regression analysis using GraphPad Prism software.

Chain of MAP4K-1 enzyme (Q92918 whole entry): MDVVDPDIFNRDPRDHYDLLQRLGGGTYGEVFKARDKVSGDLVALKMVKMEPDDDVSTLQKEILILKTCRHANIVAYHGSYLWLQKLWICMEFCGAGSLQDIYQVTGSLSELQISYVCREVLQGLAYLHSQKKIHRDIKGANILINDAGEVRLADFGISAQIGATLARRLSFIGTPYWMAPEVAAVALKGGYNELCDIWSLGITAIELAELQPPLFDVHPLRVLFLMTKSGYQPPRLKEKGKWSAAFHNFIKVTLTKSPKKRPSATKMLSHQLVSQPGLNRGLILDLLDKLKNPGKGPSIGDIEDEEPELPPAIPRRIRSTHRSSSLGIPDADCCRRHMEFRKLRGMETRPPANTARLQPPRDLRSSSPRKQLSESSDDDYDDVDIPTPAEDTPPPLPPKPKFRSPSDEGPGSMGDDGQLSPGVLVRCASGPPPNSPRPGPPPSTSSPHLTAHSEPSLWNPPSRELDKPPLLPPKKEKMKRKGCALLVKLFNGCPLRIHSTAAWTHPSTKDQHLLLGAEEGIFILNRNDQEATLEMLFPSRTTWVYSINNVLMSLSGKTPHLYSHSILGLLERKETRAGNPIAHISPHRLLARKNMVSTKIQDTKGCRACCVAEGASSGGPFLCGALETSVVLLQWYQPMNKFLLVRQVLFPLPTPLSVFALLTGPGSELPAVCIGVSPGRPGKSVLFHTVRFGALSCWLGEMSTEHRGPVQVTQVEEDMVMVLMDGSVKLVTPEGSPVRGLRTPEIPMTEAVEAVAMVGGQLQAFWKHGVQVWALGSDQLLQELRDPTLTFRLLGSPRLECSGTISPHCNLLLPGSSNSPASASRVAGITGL

Row | SMILES | inhibition at 1 µM [%] | inhibition at 10 µM [%] | IC50 (IC50 (nM)) [nM] | IC50 (read-out: IC50) [nM] | % Inhibition at 1 μM [%] | % Inhibition at 10 μM [%]
1 | COc1cc2c(cc1Nc1ncc(Cl)c(Nc3ccc(OS(=O)(=O)F)cc3P(C)(C)=O)n1)CN(CCF)CC2 [Example 13, 4-((5-Chloro-2-((2-(2-fluoroethyl)-6-methoxy-1,2,3,4-tetrahydroisoquinolin-7-yl)amino)pyrimidin-4-yl)amino)-3-(dimethylphos-phoryl)phenylsulfofluoridate dihydrochloride] | 79.7 | 81 | < 50 | – | – | –
2 | COc1cc2c(cc1Nc1ncc(Cl)c(Nc3ccc(OS(=O)(=O)F)cc3P(C)(C)=O)n1)CN(C)C(C)(C)C2 [Example 25, 4-((5-Chloro-2-((6-methoxy-2,3,3-trimethyl-1,2,3,4-tetrahydroisoquinolin-7-yl)amino)pyrimidin-4-yl)amino)-3-(dimethylphosphoryl)phenyl sulfofluoridate dihydrochloride] | 85.9 | 90.7 | < 50 | – | – | –
3 | COc1cc2c(cc1Nc1ncc(Cl)c(Nc3ccc(OS(=O)(=O)F)cc3P(C)(C)=O)n1)CN(CC(F)F)CC2 [Example 8, 4-((5-Chloro-2-((2-(2,2-difluoroethyl)-6-methoxy-1,2,3,4-tetrahydroisoquinolin-7-yl)amino)pyrimidin-4-yl)amino)-3-(dimethylphosphoryl)phenyl sulfurofluoridate dihydrochloride] | 63.7 | 80 | < 50 | – | – | –
4 | COc1cc2c(cc1Nc1ncc(Cl)c(Nc3ccc(NC(=O)CCl)cc3P(C)(C)=O)n1)CN(C)CC2 [Example 56, 2-Chloro-N-(4-((5-chloro-2-((6-methoxy-2-methyl-1,2,3,4-tetrahydroisoquinolin-7-yl)amino)pyrimidin-4-yl)amino)-3-(dimethylphosphoryl)phenyl)acetamide hydrochloride] | 88.7 | 88.2 | – | < 50 | – | –
5 | COc1cc2c(cc1Nc1ncc(Cl)c(Nc3cccc(OS(=O)(=O)F)c3P(C)(C)=O)n1)CN(C)CC2 [Example 19, 3-((5-Chloro-2-((6-methoxy-2-methyl-1,2,3,4-tetrahydroisoquinolin-7-yl)amino)pyrimidin-4-yl)amino)-2-(dimethylphosphoryl) phenylsulfofluoridate dihydrochloride] | 76.6 | 78.2 | < 50 | – | – | –
6 | Cl.Cl.[2H]C([2H])([2H])Oc1cc2c(cc1Nc1ncc(Cl)c(Nc3ccc(OS(=O)(=O)F)cc3P(C)(C)=O)n1)CN(C)CC2 [Example 5, 4-((5-Chloro-2-((6-(methoxy-d3)-2-methyl-1,2,3,4-tetrahydroisoquinolin-7-yl)amino)pyrimidin-4-yl)amino)-3-(dimethylphosphoryl)phenyl sulfurofluoridate dihydrochloride] | 78.1 | 82.5 | < 50 | – | – | –
7 | COc1cc2c(cc1Nc1ncc(Cl)c(Nc3ccc(N(C)C(=O)C(F)F)cc3P(C)(C)=O)n1)CN(C)CC2 [Example 53, N-(4-((5-Chloro-2-((6-methoxy-2-methyl-1,2,3,4-tetrahydroisoquinolin-7-yl)amino)pyrimidin-4-yl)amino)-3-(dimethylphosphoryl)phenyl)-2,2-difluoro-N-methylacetamide] | 82.4 | 90 | – | 50 to 100 | – | –
8 | CP(C)(=O)c1cc(OS(=O)(=O)F)ccc1Nc1nc(Nc2cc3n(n2)CCNC3)ncc1Cl [Example 42, 4-((5-Chloro-2-((4,5,6,7-tetrahydropyrazolo[1,5-a]pyrazin-2-yl)amino)pyrimidin-4-yl)amino)-3-(dimethylphosphoryl)phenyl sulfofluoridate dihydrochloride] | 84 | 83 | < 50 | – | – | –
9 | CN1CCc2cc(F)c(Nc3ncc(Cl)c(Nc4ccc(OS(=O)(=O)F)cc4P(C)(C)=O)n3)cc2C1 [Example 26, 4-((5-Chloro-2-((6-fluoro-2-methyl-1,2,3,4-tetrahydroisoquinolin-7-yl)amino)pyrimidin-4-yl)amino)-3-(dimethylphosphoryl)phenyl sulfofluoridate dihydrochloride] | 75.8 | 76.5 | < 50 | – | – | –
10 | COc1cc2c(cc1Nc1ncc(Cl)c(Nc3ccc(OC4COC4)cc3P(C)(C)=O)n1)CN(C)CC2 [Example 51, (2-((5-Chloro-2-((6-methoxy-2-methyl-1,2,3,4-tetrahydroisoquinolin-7-yl)amino)pyrimidin-4-yl)amino)-5-(oxetan-3-yloxy)phenyl)dimethyl phosphine oxide] | 93.1 | 94.3 | – | < 50 | – | –
11 | COc1cc2c(cc1Nc1ncc(Cl)c(Nc3ccc(O[C@@H]4CCOC4)cc3P(C)(C)=O)n1)CN(C)CC2 [Example 49, (R)-(2-((5-Chloro-2-((6-methoxy-2-methyl-1,2,3,4-tetrahydroisoquinolin-7-yl)amino)pyrimidin-4-yl)amino)-5-((tetrahydrofuran-3-yl)oxy)phenyl)dimethyl phosphine oxide] | 94.3 | 91.7 | – | < 50 | – | –
12 | COc1cc2c(cc1Nc1ncc(Cl)c(Nc3cc(OS(=O)(=O)F)ccc3P(C)(C)=O)n1)CN(C)C(C)C2 (single isomer, unassigned; isomer 1) [Example 35, 3-((5-Chloro-2-((6-methoxy-2,3-dimethyl-1,2,3,4-tetrahydroisoquinolin-7-yl)amino)pyrimidin-4-yl)amino)-4-(dimethylphosphoryl)phenyl sulfofluoridate dihydrochloride (Isomer 1)] | 83 | 79.1 | < 50 | – | – | –
13 | COc1cc2c(cc1Nc1ncc(Cl)c(Nc3ncc(OS(=O)(=O)F)cc3P(C)(C)=O)n1)CN(C)CC2 [Example 20, 6-((5-Chloro-2-((6-methoxy-2-methyl-1,2,3,4-tetrahydroisoquinolin-7-yl)amino)pyrimidin-4-yl)amino)-5-(dimethylphosphoryl)pyridin-3-yl sulfofluoridate dihydrochloride] | 80.1 | 75.5 | < 50 | – | – | –
14 | COc1cc2c(cc1Nc1ncc(C(N)=O)c(Nc3ccc(OS(=O)(=O)F)cc3P(C)(C)=O)n1)CN(C)CC2 [Example 3, 4-((5-Carbamoyl-2-((6-methoxy-2-methyl-1,2,3,4-tetrahydroisoquinolin-7-yl)amino)pyrimidin-4-yl)amino)-3-(dimethylphosphoryl)phenyl sulfurofluoridate dihydrochloride] | 85.6 | 91.2 | < 50 | – | – | –
15 | COc1cc2c(cc1Nc1ncc(Cl)c(N=S(C)(=O)c3ccccc3P(C)(C)=O)n1)CN(C)CC2 (centres unmarked) [Example 57, (2-(N-(5-Chloro-2-((6-methoxy-2-methyl-1,2,3,4-tetrahydroisoquinolin-7-yl)amino)pyrimidin-4-yl)-S-methylsulfonimidoyl)phenyl)dimethylphosphine oxide] | 83 | 79.3 | – | 50 to 100 | – | –
16 | COc1cc2c(cc1Nc1ncc(Cl)c(Nc3cc(F)c(OS(=O)(=O)F)cc3P(C)(C)=O)n1)CN(C)CC2 [Example 27, 4-((5-Chloro-2-((6-methoxy-2-methyl-1,2,3,4-tetrahydroisoquinolin-7-yl)amino)pyrimidin-4-yl)amino)-5-(dimethylphosphoryl)-2-fluorophenyl sulfofluoridate dihydrochloride] | 81.1 | 82.6 | < 50 | – | – | –
17 | COc1nc2c(cc1Nc1ncc(Cl)c(Nc3ccc(OS(=O)(=O)F)cc3P(C)(C)=O)n1)CN(C)CC2 [Example 22, 4-((5-Chloro-2-((2-methoxy-6-methyl-5,6,7,8-tetrahydro-1,6-naphthyridin-3-yl)amino)pyrimidin-4-yl)amino)-3-(dimethylphosphoryl)phenyl sulfofluoridate] | – | – | – | < 50 | 75.12 | 82.60
18 | COc1cc2c(cc1Nc1ncc(Cl)c(Nc3ccc(OS(=O)(=O)F)nc3P(C)(C)=O)n1)CN(C)CC2 [Example 21, 5-((5-Chloro-2-((6-methoxy-2-methyl-1,2,3,4-tetrahydroisoquinolin-7-yl)amino)pyrimidin-4-yl)amino)-6-(dimethylphosphoryl)pyridin-2-yl sulfofluoridate dihydrochloride] | 79.2 | 81.6 | < 50 | – | – | –
19 | COc1cc2c(cc1Nc1ncc(Cl)c(Nc3ccc(OS(=O)(=O)F)cc3P(C)(C)=O)n1)CN(CC(F)(F)F)CC2.Cl.Cl [Example 7, 4-((5-Chloro-2-((6-methoxy-2-(2,2,2-trifluoroethyl)-1,2,3,4-tetrahydroisoquinolin-7-yl)amino)pyrimidin-4-yl)amino)-3-(dimethyllphosphoryl)phenyl sulfurofluoridate dihydrochloride] | – | – | – | – | 37.71 | 69.74
20 | COc1cc2c(cc1Nc1ncc(Cl)c(Oc3ccccc3P(C)(C)=O)n1)CN(C)CC2 [Example 59, (2-((5-Chloro-2-((6-methoxy-2-methyl-1,2,3,4-tetrahydroisoquinolin-7-yl)amino)pyrimidin-4-yl)oxy)phenyl)dimethylphosphine oxide] | 83.1 | 87.3 | – | < 50 | – | –
